Key:
[1] = target: T1, D-amino-acid oxidase (Homo sapiens, UniProt P14920); test: Inhibition of human DAAO at 20 uM using D-kynurenine as substrate relative to control
Target sequence in this assay (P14920 whole entry, looked up): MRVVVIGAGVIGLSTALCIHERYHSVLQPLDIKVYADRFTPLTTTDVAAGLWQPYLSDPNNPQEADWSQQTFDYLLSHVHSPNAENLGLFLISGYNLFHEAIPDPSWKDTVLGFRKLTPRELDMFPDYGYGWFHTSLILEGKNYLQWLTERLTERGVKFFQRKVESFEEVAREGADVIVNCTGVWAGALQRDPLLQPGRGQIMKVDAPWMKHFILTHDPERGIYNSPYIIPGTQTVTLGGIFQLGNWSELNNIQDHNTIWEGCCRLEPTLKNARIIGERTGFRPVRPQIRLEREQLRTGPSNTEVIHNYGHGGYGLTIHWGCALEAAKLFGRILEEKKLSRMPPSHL

[2] = target: T1, D-amino-acid oxidase; test: Inhibition of human DAAO using D-kynurenine as substrate
Target sequence in this assay (P14920 whole entry): as the sequence (P14920 whole entry, looked up) above

| SMILES | inhibition [1] | IC50 [2] |
| --- | --- | --- |
| CN(C(=O)c1cc(Br)c(Br)[nH]1)c1c[nH]c(C(=O)NCC(=O)O)c1 | 0% | – |
| O=C(O)CNC(=O)c1cc(NC(=O)c2cc3ccccc3[nH]2)c[nH]1 | 8% | – |
| O=C(O)CNC(=O)c1cc(NC(=O)c2ccccn2)c[nH]1 | 18% | – |
| O=C(O)CNC(=O)c1cc(NC(=O)c2ccc([N+](=O)[O-])[nH]2)c[nH]1 | 33% | – |
| CN(CC(=O)O)C(=O)c1cc(N(C)C(=O)c2cc(Br)c(Br)[nH]2)c[nH]1 | 0% | – |
| Cn1cc(NC(=O)c2cc(Br)c(Br)[nH]2)cc1C(=O)NCC(=O)O | 32% | – |
| O=C(O)CNC(=O)c1cc(NC(=O)c2cc(Br)c(Br)[nH]2)c[nH]1 | 100% | 0.39 µM |
| O=C(O)CNC(=O)c1cc([N+](=O)[O-])c[nH]1 | 35% | – |
| O=C(O)CNC(=O)c1cc(NC(=O)c2cccnc2)c[nH]1 | 45% | – |
| Cc1[nH]c(C(=O)Nc2c[nH]c(C(=O)NCC(=O)O)c2)c(Cl)c1Cl | 100% | 8.8 µM |
| O=C(O)CNC(=O)c1cc(NC(=O)c2cc(Cl)c(Cl)[nH]2)c[nH]1 | 100% | 5.2 µM |
| O=C(O)CNC(=O)c1cc(NC(=O)c2cc(Br)c[nH]2)c[nH]1 | 100% | 6.7 µM |
| CN(CC(=O)O)C(=O)c1cc(NC(=O)c2cc(Br)c(Br)[nH]2)c[nH]1 | 100% | 0.49 µM |
| CC(=O)Nc1c[nH]c(C(=O)NCC(=O)O)c1 | 39% | – |

Source: ChEMBL document CHEMBL4219249, “Discovery of d-amino acid oxidase inhibitors based on virtual screening against the lid-open enzyme conformation” (Bioorg Med Chem Lett, 2018)
